The values that follow come from patent publication US4299838A, “Tryptophan derivatives having an increased effect on the central nervous system” (priority 1974, dated 1981).

As usually defined, the LD50 is the dose expected to kill half of the subjects tested.

A short description of data set [1]: Acute toxicity (LD 50) in the mouse. Conditions: mouse, in vivo, ip, intraperitoneal, mice. The data set is classed as in vivo.
The nature of data set [2]: Acute toxicity (LD 50) in the mouse. Conditions: mouse, in vivo, po. It is filed as in vivo. The text has this: (§1) The oral LD-50 is 16.50 g/kg for DL and 18.25 g/kg for L(+).
Data set [3] can be described thus: Solubility and hygroscopicity. The data set is classed as physicochemical.
In data set [4] the test system is mice. Put plainly: Acute toxicity (LD 50) in the mouse. It is filed as in vivo. Conditions: for LD50: intraperitoneal, mice; for LD-50: oral, mouse.
Data set [5] is described as follows: Pharmacological study, overall comparison. It is filed as in vivo. The settings on record: for pharmacological properties: in vivo.
A further data set concerns depression. Put plainly: Clinical tests in depression. It is filed as in vivo. Conditions: human. The text has this:
(§2) The importance of the compounds according to the invention was confirmed by clinical tests.

Data set [6] has as its system amphetamine hyperactivity. The data set is described as follows: Potentiation of amphetamine hyperactivity (actography). It is filed as in vivo, mouse. The text has this: (f) Potentiation of amphetamine hyperactivity.
A further data set has as its system rat. The data set is described as follows: Hypothermic effect on the rat (rectal temperature). The data set is classed as in vivo. Conditions: 1 g/kg intraperitoneal. The text has this: (a) A hypothermic effect on the rat.
The test system of data set [7] is analgesia produced by morphine. The data set is described as follows: Heating plate test (analgesia produced by morphine). The data set is classed as in vivo.
Data set [8] deals with manic-depressive psychoses. The data set is described as follows: Clinical tests in manic-depressive psychoses. The data set is classed as in vivo, human. The protocol: as §2
Lithium N-acetyl tryptophanate was used to treat manic-depressive psychoses.
A person was treated for a manic-depressive psychosis for 6 years. Relapses normally occurred in spring. They were not prevented either by tricyclic drugs or by IMAO substances. Treatment with lithium carbonate produced oligo-menorrhoea, although the patient normally had regular periods.

Data set [9] deals with hyperactivity due to the association of amphetamine and chlorodiazepoxide. Put plainly: Inhibition of hyperactivity due to the association of amphetamine and chlorodiazepoxide (actography). The data set is classed as in vivo, mouse. Conditions: 500 and 1000 mg/kg i.p., 1 hour and 3 hours before (+) amphetamine sulphate (5 mg/kg) and chlorodiazepoxide (25 or 50 mg/kg). The method, then: (b) Inhibition of hyperactivity due to the association of amphetamine and chlorodiazepoxide;
Simultaneous intraperitoneal administration of (+) amphetamine sulphate (5 mg/kg) and chlorodiazepoxide (25 or 50 mg/kg) to mice produced hyperactivity which was measured by the actography method, wherein the mice are placed in pairs in three suspended cages and their movements are recorded.

The test system of data set [10] is mice. Put plainly: Acute toxicity (LD 50) in the mouse. The data set is classed as in vivo.
From the text: as §1

For the next data set, the system named is exploratory activity. Put plainly: Exploratory activity in the perforated board test. Conditions: mice. The data set is classed as in vivo, mouse. The text has this:
(c) The reduction of exploratory activity in the `perforated board` test (Boissiet and Simon-Arch-Int. Pharmacodyn. 1964, 147, 3-4).

For a further data set, the system named is reserpine ptosis. Put plainly: Reserpine anti-ptosis effect. It is filed as in vivo, mouse. The method, then: (d) A reserpine anti-ptosis effect. Increasing doses of the test product were subcutaneously administered to male mice, 30 minutes before intraperitoneal injection of reserpine. The ptosis was measured every half-hour for 5 hours by the method of Rubin et Coll. (observation of the occlusion of the lids of each eye). The percentage protection against ptosis was calculated, compared with controls. Lithium acetyl tryptothanate reduced ptosis produced by reserpine, to an extent which increased up to a dose of 800 mg/kg (45% reduction).

The test system of data set [11] is gastric ulcers. The data set is described as follows: Anti-ulcer effect, Shay method (ligature of the pylorus). It is filed as in vivo, mouse. Conditions: for ED50: mouse, read-out: DE-50 (anti-ulcer dose 50). The protocol:
(§3) Mg acetyl tryptophanate dissolved in twice-distilled water was administered 48 hours before, 24 hours before and at the moment when the mouse was put under constraint, or 24 hours before and 1 hour before the ligature of the pylorus.
(§4) The DE-50 (anti-ulcer dose 50) of orally-administered Mg acetyl tryptophanate, measured by the stress-ulcer method, was 1700 mg/kg. The DE-50 of intraperitoneally administered Mg acetyl tryptophanate was 230 mg/kg, measured by the stress-ulcer method (i.e. one-tenth of the LD-50) compared with 16 mg/kg (33/100 of the LD-50) for prifinium bromide; measured by the Shay method, the DE-50 was 340 mg/kg (14/100 of the LD-50) for Mg acetyl tryptophanate, compared with 25 mg/kg (52/100 of the LD-50) for prifinium bromide under the same conditions.

Data set [12] in a line: Acute toxicity (LD-50) in the rat. Conditions: in vivo.
From the text: as §1

Data set [13] has as its system gastric ulcers. The data set is described as follows: Anti-ulcer effect, stress-ulcer method of Rossi et Coll. Conditions: for DE-50 as fraction of the LD-50 / ED50: stress-ulcer method; for ED50: mouse, read-out: DE-50 (anti-ulcer dose 50). It is filed as in vivo, mouse. The method, then: as §3, §4
In data set [14] the test system is pentobarbitone sleeping time. Put plainly: Pentobarbitone sleeping time. It is filed as in vivo. The settings on record: mouse, 35 mg/kg pentobarbitone 5 minutes before sub-cutaneous product.

On to `CC(=O)NC(Cc1c[nH]c2ccccc12)C(=O)O` (racemic) [Lithium N-acetyl tryptophanate (DL), Li N-acetyl tryptophan (DL)], for which the values for the LD50 in data set [1] and in data set [2] were 3400 mg/kg and 8700 mg/kg, respectively. Besides, in data set [3], the solubility in water result was “very soluble”.

For the compound `CC(=O)NC(Cc1c[nH]c2ccccc12)C(=O)O` (racemic) [Magnesium N-acetyl tryptophanate (DL), magnesium N-acetyl tryptophanate (DL)], the median lethal dose (LD50) in the data set on mice [4] is 2800 mg/kg; in data set [2], 16500 mg/kg. For the same compound, the hygroscopicity result in [3] is recorded as “very hygroscopic”.

Turning to `CC(=O)NC(Cc1c[nH]c2ccccc12)C(=O)O` (racemic) [Monoethanolamine N-acetyl tryptophanate, monoethanolamine N-acetyl tryptophanate (DL)], in the data set on mice [4], the LD-50 entry was “above 18 g/kg”. Further, in data set [5], the pharmacological properties result was “very similar to those of magnesium N-acetyl tryptophanate”. For the same compound, in the data set on depression, the “effect on sleep, sthenic action and headaches” value (from here on “effect on sleep”) was “producing normal sleep, accompanied by a daily sthenic action and the control of refractory headaches”; the “use in the treatment of depression” value was “of use in the treatment of depression”. Further, the “solubility in chlorine and hydrocarbon derivatives” value in [3] (chlorine and hydrocarbon derivatives) is “insoluble”. Also, the solubility in water entry in data set [3] is given as “fairly soluble”.

The compound `CC(=O)NC(Cc1c[nH]c2ccccc12)C(=O)O` (racemic) [Morpholine N-acetyl tryptophanate, morpholine N-acetyl tryptophanate] came in with an LD-50 in the data set with mice [4] of 16000 mg/kg. The pharmacological properties result in data set [5] is recorded as “very similar to those of magnesium N-acetyl tryptophanate”. In the data set with depression, the “effect on sleep” value is “producing normal sleep, accompanied by a daily sthenic action and the control of refractory headaches”; the “use in the treatment of depression” value is “of use in the treatment of depression”. The “solubility in chlorinated solvents” value in [3] (chlorinated solvents) is reported as “slightly soluble”. Further, the solubility in water entry in data set [3] is “very soluble”.

With `C[C@H](N)Cc1ccccc1` [Dexamphetamine sulphate, dexamphetamine sulphate, reference compound], the “excitation, dexamphetamine sulphate alone” value in data set [6] (5 mg/kg intraperitoneal, mouse) is “did not produce very marked excitation”.

Consider `CC(=O)N[C@@H](Cc1c[nH]c2ccccc12)C(=O)O` [Lithium N-acetyl tryptophanate L(+), Lithium N-acetyl tryptophanate in the L(+) form], for which the LD50 was 3250 mg/kg in data set [1] and 10500 mg/kg in data set [2]. Moreover, the “solubility in chlorinated and aromatic solvents” value in data set [3] (chlorinated and aromatic solvents) is listed as “very slightly soluble”. Besides, the “solubility in ethyl alcohol” value in [3] (ethyl alcohol) is listed as “soluble”. In addition, the solubility in water result in data set [3] is on record as “soluble”.

Turning to `CC(=O)NC(Cc1c[nH]c2ccccc12)C(=O)O` (stereo not drawn) [Lithium N-acetyl tryptophanate, lithium N-acetyl tryptophanate], the “excitation with 5 mg/kg dexamphetamine sulphate plus product (actography)” value in data set [6] (500 mg/kg with 5 mg/kg i.p. dexamphetamine sulphate, mice) is “to a considerably greater extent than with dexamphetamine sulphate alone”. In the data set with rat, the “duration of progressive reduction of rectal temperature after injection” value amounted to 110 min and the “temperature of the rectum” value is recorded as “progressively reduces the temperature of the rectum”. For the same compound, the “effect on analgesia produced by morphine” value in data set [7] is given as “did not affect analgesia produced by morphine”. Also, in data set [8] (human, in vivo), the tolerance by patients entry is “tolerated by the patients better than lithium carbonate”. For the same compound, the prevention of relapses result in data set [8] (manic-depressive psychoses) was “appeared to prevent relapses into cyclothymia”. Moreover, the reduction in hyperactivity entry in data set [9] is “very marked reduction in hyperactivity”. Moreover, the toxicity in words result in the data set with mice [10] (mouse, in vivo) was “only slightly toxic”. The “oral toxicity in words” value in the data set with mice [10] (oral) is recorded as “low”. Further, the mobility entry with exploratory activity (1000 mg/kg intraperitoneal) is “very marked increase in mobility”. Further, in the data set with exploratory activity (1500 mg/kg intraperitoneal), the exploratory activity entry is “significant reduction in exploratory activity”. Further, the “reduction of ptosis produced by reserpine” value with reserpine ptosis (800 mg/kg subcutaneous, 30 minutes before i.p. reserpine, male mice) amounted to 45%.

With `O=C(O)O` [Lithium carbonate, lithium carbonate], in data set [8] (observation No. 1), the lithaemia was not above 1 meq; the “side effect on menstruation” value is “oligo-menorrhoea”; the “side effects during treatment” value was “nausea and attacks of vomiting”.

In the case of `CC(=O)N[C@@H](Cc1c[nH]c2ccccc12)C(=O)O` [Magnesium N-acetyl tryptophanate L(+), L(+) magnesium N-acetyl tryptophanate], the “LD50” value in the data set with mice [4] came to 2300 mg/kg; in data set [2], 18200 mg/kg. In addition, the solubility in water result in data set [3] is recorded as “very soluble”.

`CC(=O)NC(Cc1c[nH]c2ccccc12)C(=O)O` (stereo not drawn) [Magnesium N-acetyl tryptophanate, magnesium N-acetyl tryptophanate]: the “DE-50 as fraction of the LD-50” value in the data set with gastric ulcers [11] is on record as 14/100; with gastric ulcers [13] (intraperitoneal), “one-tenth”. Besides, the ED50 in the data set with gastric ulcers [11] was 340 mg/kg; in the data set with gastric ulcers [13] (ip, intraperitoneal), 230 mg/kg; in the data set on gastric ulcers [13] (oral), 1700 mg/kg. The LD50 in data set [12] (ip, intraperitoneal) was 1350 mg/kg; in [12] (oral), more than 8000 mg/kg. Moreover, the “anti-ulcer effect compared with prifinium bromide” value in the data set on gastric ulcers [13] (both ulcer methods) was “slightly lower anti-ulcer effect than prifinium bromide”. The “safety in therapy compared with prifinium bromide” value with gastric ulcers [13] (both ulcer methods) is “safer in therapy”. Further, the “action compared with lithium acetyl tryptophanate” value in data set [5] (measured by the same tests) is recorded as “slower but more prolonged”. Moreover, the average sleeping time result in [14] is given as “increased the average sleeping time to an extent proportional to the dose”. Further, the “effect on sleep” value in the data set on depression is “producing normal sleep, accompanied by a daily sthenic action and the control of refractory headaches”. Further, the “use in the treatment of depression” value in the data set with depression is reported as “of use in the treatment of depression”. Also, the “reserpine anti-ptosis effect in words” value with reserpine ptosis (mouse, in vivo) is given as “only a very slight reserpine anti-ptosis effect”.

Turning to `CC[N+]1(CC)CCC(=C(c2ccccc2)c2ccccc2)C1C` (stereo not drawn) [Prifinium bromide, prifinium bromide, reference compound], the entries for the “DE-50 as fraction of the LD-50” value in the data set with gastric ulcers [11] and with gastric ulcers [13] (intraperitoneal) were 52/100 and 33/100, respectively. Besides, the ED50 is 25 mg/kg in the data set with gastric ulcers [11] and 16 mg/kg in the data set on gastric ulcers [13] (ip, intraperitoneal).
